Experimental data as given in patent US20250087329A1, “PERSONALISED RECOMMENDED DAILY INTAKE FOR NUTRIENTS BASED ON INDIVIDUAL GENETIC RISK SCORES” (SOCIETE DES PRODUITS NESTLE S.A., priority 2021, published 2025).

Tests used:
[1] = Person; daily intake; cited from earlier work
[2] = Dose-response algorithm for vitamin B12 including polygenic risk score effects (Arivale cohort); set-up: species or system human
Description: A linear regression was performed for the selected SNPs against vitamin B12 in the Arivale cohort. The Arivale cohort consists of individuals over 18 years of age who between 2015 and 2019 self-enrolled in a now closed scientific wellness company. Briefly, majority of Arivale participants (˜80%) were residents of Washington or California when in the program (for further information on the Arivale cohort see Wilmanski et al. 2021). Methyl-malonic acid (MMA) was measured as a biomarker for blood B12 concentrations. MMA is inversely correlated with vitamin B12 blood levels. The distribution of the PRS was normally distributed and the average increase in MMA per risk allele was 3.4 units (Table 5) corresponding to a decrease of approximately […] vitamin B12 (cobalamin) per risk allele.
To estimate individual vitamin B12 intake needs, a genetic term that sums the effects of all risk alleles present in an individual was added to the dose-response model in the form: […]

Compound | UL (tolerable upper intake level) [1] [mg] | intake needed by highest risk score group relative to low risk group to reach the same blood levels ([2]; 14-18 risk alleles vs 0-4 risk alleles) | daily vitamin B12 intake needed for vitamin B12 sufficiency ([2]; sufficiency for 97% of the high risk group)
[Ca+2] [Calcium] | 2500 |  | 
Cl [Chloride] | 3600 |  | 
C[N+](C)(C)CCO [Choline] | 3500 |  | 
F [Fluoride] | 10 |  | 
[Mg+2] [Magnesium] | 350 |  | 
[Mn+2] [Manganese] | 11 |  | 
O=C(O)c1cccnc1 [Niacin (B3), Niacin] | 35 |  | 
[P] [Phosphorus] | 4000 |  | 
[Se] [Selenium] | 0.4 |  | 
[Na] [Sodium] | 2300 |  | 
[Zn] [Zinc] | 40 |  | 
Cc1c(C)c2c(c(C)c1O)CC[C@@](C)(CCC[C@H](C)CCC[C@H](C)CCCC(C)C)O2 [α-tocopherol (Vitamin E), α-tocopherol] | 1000 |  | 
cobalamin [vitamin B12] |  | five times | higher than 1500 mcg/day
